Patent publication US12180226B2, “Spirotricycle RIPK1 inhibitors and methods of uses thereof” (Merck Sharp & Dohme LLC, priority 2021, dated 2024)
Where a name gives a salt, the structure may show the parent alone.

These molecules were tested against RIPK1 (recombinant GST-RIPK1 kinase domain, residues 1-327) (Homo sapiens (Human), UniProt Q13546) (assay: RIPK1-ADP-Glo Enzymatic Assay). Conditions: ADP-Glo; 25 nM GST-RIPK1, 300 μM ATP; assay lower limit ~25 nM; read-out: RIPK1 V0 Ec50.
RIPK1 (recombinant GST-RIPK1 kinase domain, residues 1-327), sequence (Q13546 1-327): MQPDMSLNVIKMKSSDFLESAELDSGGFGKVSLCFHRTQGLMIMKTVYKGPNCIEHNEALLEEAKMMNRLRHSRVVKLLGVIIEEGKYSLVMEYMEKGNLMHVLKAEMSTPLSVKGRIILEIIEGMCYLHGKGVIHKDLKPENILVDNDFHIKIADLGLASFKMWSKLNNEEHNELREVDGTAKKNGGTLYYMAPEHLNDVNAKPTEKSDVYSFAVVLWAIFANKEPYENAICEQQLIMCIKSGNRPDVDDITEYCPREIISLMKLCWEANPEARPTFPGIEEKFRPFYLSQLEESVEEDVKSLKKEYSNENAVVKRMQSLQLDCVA
Type: biochemical
Summary of the method: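 GST-tagged kinase domain (residues 1-327, Sf21-expressed), 25 nM, pre-incubated 30 min with compound at ambient temperature, then reacted 150 min with 300 μM ATP and 3 μM dephosphorylated MBP in HEPES pH 7.3 buffer. ADP measured by ADP-Glo luminescence; EC50 from ten-point titration (top 100000 nM), four-parameter fit.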
An EC50 of 38.1 nM was found for `N#Cc1cc(N2CCC3(CC2)SC2CCC(c4cc(F)cc(F)c4)N2C3=O)ncn1` (stereo not drawn) [Example 4.111, 6-(5′-(3,5-difluorophenyl)-3′-oxotetrahydro-3′H-spiro[piperidine-4,2′-pyrrolo[2,1-b]thiazol]-1-yl)pyrimidine-4-carbonitrile] in this work. An EC50 of 40.2 nM was found for `N#Cc1cccc(C(=O)N2CCC3(CC2)O[C@@H]2CC[C@@H](c4cc(F)cc(F)c4)N2C3=O)c1F` [Example 6.33, 3-[(5′S,7a′R)-5′-(3,5-difluorophenyl)-3′-oxotetrahydro-1H,3′H-spiro[piperidine-4,2′-pyrrolo[2,1-b][1,3]oxazole]-1-carbonyl]-2-fluorobenzonitrile] in this work. An EC50 of 36.2 nM was found for `NC(=O)c1ccc(N2CCC3(CC2)O[C@@H]2CC[C@@H](c4ccccc4)N2C3=O)nc1` [Example 4.199, 6-[(5′S,7a′R)-3′-oxo-5′-phenyltetrahydro-1H,3′H-spiro[piperidine-4,2′-pyrrolo[2,1-b] [1,3]oxazol]-1-yl]pyridine-3-carboxamide] in this work. An EC50 of 53.4 nM was found for `Cc1nc(N2CCC3(CC2)O[C@@H]2CC[C@@H](c4cc(F)cc(F)c4)N2C3=O)ncc1F` [Example 4.61, (5′S,7a′R)-5′-(3,5-difluorophenyl)-1-(5-fluoro-4-methylpyrimidin-2-yl)tetrahydro-3′H-spiro[piperidine-4,2′-pyrrolo[2,1-b] [1,3]oxazol]-3′-one] in this work. An EC50 of 39.2 nM was found for `C#Cc1cc(C(=O)N2CCC3(CC2)O[C@@H]2CC[C@@H](c4cc(F)cc(F)c4)N2C3=O)ccn1` [Example 5.42, (5′S,7a′R)-5′-(3,5-difluoro-phenyl)-1-(2-ethynylpyri-dine-4-carbonyl)tetra-hydro-3′H-spiro[piperi-dine-4,2′-pyrrolo-[2,1-b] [1,3]oxazol]-3′-one] in this work. An EC50 of 91.3 nM was found for `Cn1nc(N2CCC3(CC2)O[C@@H]2CC[C@@H](c4ccccc4)N2C3=O)ccc1=O` [Example 11.7, (5′S,7a′R)-1-(1-methyl-6-oxo-1,6-dihydropyridazin-3-yl)-5′-phenyltetrahydro-3′H-spiro[piperidine-4,2′-pyrrolo[2,1-b][1,3]oxazol]-3′-one] in this work. An EC50 of 26.4 nM was found for `O=C1N2[C@@H](CC[C@H]2c2ccccc2)OC12CCN(c1cc(-c3ccco3)ccn1)CC2` [Example 4.169, (5′S,7a′R)-1-[4-(furan-2-yl)pyridin-2-yl]-5′-phenyltetrahydro-3′H-spiro[piperidine-4,2′-pyrrolo[2,1-b] [1,3]oxazol]-3′-one] in this work. For `O=C1N2[C@@H](CC[C@H]2c2cc(F)cc(F)c2)OC12CN(c1ccnc3c(F)cnn13)C2` [Example 4.117, (5′S,7a′R)-5′-(3,5-difluorophenyl)-1-(3-fluoropyrazolo[1,5-a]pyrimidin-7-yl)tetrahydro-3′H-spiro[azetidine-3,2′-pyrrolo[2,1-b]oxazol]-3′-one], the EC50 was < 25 nM. An EC50 of 48.4 nM was found for `CC(C)N1Cc2nc(N3CCC4(CC3)O[C@@H]3CC[C@@H](c5ccccc5)N3C4=O)ccc2C1=O` [Example 4.195, (5′S,7a′R)-1-[5-oxo-6-(propan-2-yl)-6,7-dihydro-5H-pyrrolo[3,4-b]pyridin-2-yl]-5′-phenyltetrahydro-3′H-spiro[piperidine-4,2′-pyrrolo[2,1-b] [1,3]oxazol]-3′-one] in this work. In the case of `N#Cc1ccc(N2CCC3(CC2)O[C@@H]2CC[C@@H](c4ccccc4)N2C3=O)c2ccnn12` [Example 13.19, 4-((5′S,7a′R)-3′-oxo-5′ phenyltetrahydro-3′H-spiro[piperidine-4,2′-pyrrolo[2,1-b]oxazol]-1-yl)pyrazolo[1,5-a]pyridine-7-carbonitrile, TFA salt], the EC50 is reported as < 25 nM. An EC50 of 459 nM was found for `N#Cc1cn[nH]c1C(=O)N1CCC2(CC1)O[C@@H]1CC[C@@H](c3cc(F)cc(F)c3)N1C2=O` [Example 5.40, 5-((5′S,7a′R)-5′-(3,5-difluorophenyl)-3′-oxo-tetrahydro-3′H-spiro [piperidine-4,2′-pyrrolo-[2,1-b]oxazole]-1-carbon-yl)-1H-pyrazole-4-car-bonitrile] in this work. An EC50 of 33.1 nM was found for `O=C(c1cscn1)N1CCC2(CC1)O[C@@H]1CC[C@@H](c3cc(F)cc(F)c3)N1C2=O` [Example 5.44] in this work.
